Results on 27 compounds are retold here after publication PMC10746280, “Bacterial efflux pump modulators prevent bacterial growth in macrophages and under broth conditions that mimic the host environment” (mBio, 2023).

One data set deals with RAW 264.7 macrophages. In words: SAFIRE macrophage assay: host toxicity (adherent macrophage count, morphology). Format: cell-based. The gist of the method: (§1)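 RAW 264.7 macrophages infected with S. Typhimurium SL1344 sifB::gfp (MOI ~30), gentamicin 40 µg/mL, then compound from 2 h to 18 h post-infection. Confocal imaging with MitoTracker and DAPI; toxicity as adherent MitoTracker-positive macrophage count, bacterial load as GFP+ macrophage area.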

The test system of data set [1] is S. Typhimurium SL1344 (sifB::gfp) in RAW 264.7 macrophages. In words: SAFIRE macrophage assay: intracellular bacterial load (GFP signal within macrophages). Format: cell-based, Salmonella enterica serotype Typhimurium. To be noted: for 5 uM Avg Antibacterial Score / 25 uM Avg Antibacterial Score: 'Toxic' given instead of a score; for IC50: Salmonella enterica, TYPHIMURIUM, RAW264.7, read-out: SAFIRE IC50. An outline of the steps: as §1

`CN(CC(O)COc1ccc(F)c(F)c1)C1CCNCC1` (stereo not drawn) [CU178]: in the data set with RAW 264.7 macrophages, the “5 uM Avg Cell # Score” value came out at 99 and the “25 uM Avg Cell # Score” value turned out to be 97. Besides, in data set [1], the “5 uM Avg Antibacterial Score” value was 72 and the “25 uM Avg Antibacterial Score” value came to 51.
Take `OC(COc1ccc(Cl)c(Cl)c1)CN1CCC(n2ccnc2)CC1` (stereo not drawn) [CU179]: in the data set on RAW 264.7 macrophages, the “5 uM Avg Cell # Score” value was 98 and the “25 uM Avg Cell # Score” value was 91. Besides, in data set [1], the “5 uM Avg Antibacterial Score” value amounted to 36, the “25 uM Avg Antibacterial Score” value was found to be 19 and the IC50 worked out at 45 nM.
As to `OC(COc1ccc(Cl)c(Cl)c1)CN1CCN(C2CCOC2)CC1` (stereo not drawn) [CU180], in the data set on RAW 264.7 macrophages, the “5 uM Avg Cell # Score” value stood at 96 and the “25 uM Avg Cell # Score” value is 100. Also, in data set [1], the “5 uM Avg Antibacterial Score” value was 106 and the “25 uM Avg Antibacterial Score” value is 82.
The corresponding values for `OC(COc1ccc(Cl)c(Cl)c1)CN1CCN(C2COC2)CC1` (stereo not drawn) [CU181] are 100, 101, 109 and 94.
The corresponding values for `OC(COc1ccc(Cl)c(Cl)c1)CN1CCN(C2CC2)CC1` (stereo not drawn) [CU182] are 102, 101, 105 and 73.
The corresponding values for `OC(COc1ccc(Cl)c(Cl)c1)CN1CCN(CC2CC2)CC1` (stereo not drawn) [CU183] are 103, 105, 92 and 25.
As for `O=C1CN(CC(O)COc2ccc(Cl)c(Cl)c2)CCN1` (stereo not drawn) [CU184], in the data set with RAW 264.7 macrophages, the “5 uM Avg Cell # Score” value was 91 and the “25 uM Avg Cell # Score” value is 97. For the same compound, in data set [1], the “5 uM Avg Antibacterial Score” value was found to be 103 and the “25 uM Avg Antibacterial Score” value was found to be 102.
The corresponding values for `OC(COc1ccc(Cl)c(Cl)c1)CN1CCC(N2CCOCC2)CC1` (stereo not drawn) [CU185] are 120, 125, 87 and 76.
In the case of `OC(COc1cccc2ncccc12)CN1CCC(Nc2nccc(C(F)(F)F)n2)CC1` (stereo not drawn) [CU186], in the data set with RAW 264.7 macrophages, the “5 uM Avg Cell # Score” value stood at 121 and the “25 uM Avg Cell # Score” value was determined as 72. Further, in data set [1], the “5 uM Avg Antibacterial Score” value is 101 and the “25 uM Avg Antibacterial Score” value was 9.
Take `NC1CCN(CC(O)COc2cccc(Cl)c2)CC1` (stereo not drawn) [CU188]: in the data set on RAW 264.7 macrophages, the “5 uM Avg Cell # Score” value is on record as 110 and the “25 uM Avg Cell # Score” value worked out at 111. For the same compound, in data set [1], the “5 uM Avg Antibacterial Score” value stood at 33 and the “25 uM Avg Antibacterial Score” value was 25.
For `NC1CCN(CC(O)COc2ccccc2Cl)CC1` (stereo not drawn) [CU189] the same measures were 107, 109, 61 and 49.
The corresponding values for `NC1CCN(CC(O)COc2ccc(Cl)cc2Cl)CC1` (stereo not drawn) [CU190] are 101, 87, 24 and 21.
For `NC1CCN(CC(O)COc2cc(Cl)cc(Cl)c2)CC1` (stereo not drawn) [CU191] the same measures were 100, 15, 14 and “Toxic”.
For the compound `NC1CCN(CC(O)COc2c(Cl)cccc2Cl)CC1` (stereo not drawn) [CU192], in the data set on RAW 264.7 macrophages, the “5 uM Avg Cell # Score” value is given as 96 and the “25 uM Avg Cell # Score” value is 92. In addition, in data set [1], the “5 uM Avg Antibacterial Score” value came out at 52, the “25 uM Avg Antibacterial Score” value came out at 30 and the IC50 came to 6.9 nM.
For `N[C@@H]1CCN(CC(O)COc2ccc(Cl)c(Cl)c2)C1` (stereo partly drawn) [CU193] the same measures were 100, 98, 28, 14 and 11.5 nM.
As to `N[C@H]1CCN(CC(O)COc2ccc(Cl)c(Cl)c2)C1` (stereo partly drawn) [CU194], in the data set with RAW 264.7 macrophages, the “5 uM Avg Cell # Score” value came to 100 and the “25 uM Avg Cell # Score” value came to 103. For the same compound, in data set [1], the “5 uM Avg Antibacterial Score” value is 18 and the “25 uM Avg Antibacterial Score” value was 12.
The corresponding values for `O=C1OC(COc2ccc(Cl)c(Cl)c2)CN1c1ccc(N2CCOCC2)cc1` (stereo not drawn) [CU195] are 114, 82, 107 and 103.
The corresponding values for `O=C(O)c1cn(C2CC2)c2cc(N3CCN(CC(O)COc4ccc(Cl)c(Cl)c4)CC3)c(F)cc2c1=O` (stereo not drawn) [CU196] are 103, 13, 86 and “Toxic”.
The corresponding values for `N=C(N)NC1CCN(CC(O)COc2ccc(Cl)c(Cl)c2)C1` (stereo not drawn) [CU197] are 109, 117, 103 and 87.
On to `OC(CNC1CCNCC1)COc1ccc(Cl)cc1` (stereo not drawn) [CU198], for which, in the data set with RAW 264.7 macrophages, the “5 uM Avg Cell # Score” value is 110 and the “25 uM Avg Cell # Score” value came to 110. Further, in data set [1], the “5 uM Avg Antibacterial Score” value came out at 83 and the “25 uM Avg Antibacterial Score” value turned out to be 34.
For the compound `OC(CNC1CCNCC1)COc1cccc(Cl)c1` (stereo not drawn) [CU199], in the data set on RAW 264.7 macrophages, the “5 uM Avg Cell # Score” value is 105 and the “25 uM Avg Cell # Score” value is 115. Further, in data set [1], the “5 uM Avg Antibacterial Score” value is recorded as 83 and the “25 uM Avg Antibacterial Score” value is 55.
On to `OC(CNC1CCNCC1)COc1ccccc1Cl` (stereo not drawn) [CU200], for which, in the data set with RAW 264.7 macrophages, the “5 uM Avg Cell # Score” value is reported as 99 and the “25 uM Avg Cell # Score” value came out at 108. For the same compound, in data set [1], the “5 uM Avg Antibacterial Score” value came to 92 and the “25 uM Avg Antibacterial Score” value turned out to be 65.
Take `OC(CNC1CCNCC1)COc1ccc(Cl)cc1Cl` (stereo not drawn) [CU201]: in the data set on RAW 264.7 macrophages, the “5 uM Avg Cell # Score” value is reported as 109 and the “25 uM Avg Cell # Score” value was found to be 102. Also, in data set [1], the “5 uM Avg Antibacterial Score” value is reported as 44 and the “25 uM Avg Antibacterial Score” value is reported as 13.
For `OC(CNC1CCNCC1)COc1cc(Cl)cc(Cl)c1` (stereo not drawn) [CU202] the same measures were 100, 95, 34 and 11.
For `N[C@@H]1CCN(CC(O)COc2cc(Cl)cc(Cl)c2)C1` (stereo partly drawn) [CU203] the same measures were 98, 106, 33 and 9.
The corresponding values for `N[C@H]1CCN(CC(O)COc2cc(Cl)cc(Cl)c2)C1` (stereo partly drawn) [CU204] are 93, 101, 28 and 8.51.
Regarding `NCC1CCN(CC(O)COc2ccc(Cl)c(Cl)c2)CC1` (stereo not drawn) [CU205], in the data set with RAW 264.7 macrophages, the “5 uM Avg Cell # Score” value was 131 and the “25 uM Avg Cell # Score” value was found to be 13. Also, in data set [1], the “5 uM Avg Antibacterial Score” value came to 12 and the “25 uM Avg Antibacterial Score” value is reported as “Toxic”.
